This data set deals with β-amyloid neuritic plaque. The data set can be described thus: Radiometer cap detection of head radiation signals after IV amyloid tracer, concurrent PET. Type of data set: in vivo, human. How it is done:
Tests were conducted using a series of radiometers positioned around subjects heads and a standard PET camera using the amyloid tracer ^18F-fluorbetapir in subjects with probable Alzheimer's disease (AD subjects) and healthy control volunteers (HC). ^18F-fluorbetapir is a radioactive diagnostic agent for positron emission tomography (PET) imaging of the brain to estimate β-amyloid neuritic plaque density in adult patients with cognitive impairment who are being evaluated for AD. PET imaging targeting β-amyloid neuritic plaque deposition has already begun playing a role in identifying individuals very early in the course of AD and monitoring progression of the disease over the course of the treatment with investigational therapeutics.
During testing, ^18F-fluorbetpir was administered intravenously as a bolus injection followed by a saline flush. […] Each subject received a single injection of the radioligand with a dose of no more than 10 mCi in a maximum volume of 10 mL.
The device included a cap fitted with up to 5 detectors at various 10-20 EEG positions which was placed on the subject's head. The subjects were asked to avoid any movements of the head and to remain immobilized as much as possible. Additional detectors were secured to one ankle and the chin to obtain an indirect measure of the activity in the blood, and to monitor activity in the head respectively. […] Detector specific count rates and total counts were measured continuously for up to 3 hours. The count rate and total counts were compared in the AD subjects and HC subjects to extrapolate qualitative and quantitative pattern differences. […]
For processing purposes, detected radiation signals were decay corrected to the time of injection. The counts were recorded in 4 second intervals, which were then median filtered using a 2 minute window. […]
To quantify this, a constrained bi-exponential model was fit to the 10-65 minute period of each of the detectors, as well as the sum of the brain signals (excluding the chin, ankle and tip top detectors). […]

Structures are written as SMILES.

Consider `CNc1ccc(/C=C/c2ccc(OCCOCCOCCF)nc2)cc1` [^18F-fluorbetapir], for which, where the note is “ankle detector, all subjects, IV bolus”, the “ankle detector signal after injection” value is recorded as “steadily climbed”. Further, the “alpha phase of bi-exponential fit, healthy versus AD subjects” value (bi-exponential fit of 10-65 minute period, alpha phase limited to 5-30 min half-life) is on record as “faster alpha phase”. Under “head detectors, healthy subjects”, the “initial washout of signal in healthy subjects versus AD subjects” value was “faster initial washout”.

For the origin of these results see patent US11660054B2, “Medical diagnostic and treatment systems and their methods of use” (Biogen MA Inc., priority 2016, dated 2023).
